PubChem BioAssay (NCI)
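Briefly, cells in 96-well plates were exposed to five compound concentrations for 48 h, and endpoints were estimated by linear interpolation. GI50 = concentration required for 50% inhibition of growth. At the TGI there is no net growth.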

Legend:
Test in all cases: NCI anticancer screen, dose series, 48 h; in the data active = GI50 below about 0.43 µM; inactive = the rest
SF-268 CNS = system: SF-268 CNS
EKVX NSCLC = system: EKVX NSCLC
SK-MEL-5 melanoma = system: SK-MEL-5 melanoma
MDA-MB-435 = system: MDA-MB-435
NCI-H23 lung = system: NCI-H23 lung
TK-10 renal = system: TK-10 renal
BT-549 breast = system: BT-549 breast
SR leukemia = system: SR leukemia
MCF7 breast = system: MCF7 breast
OVCAR-4 ovarian = system: OVCAR-4 ovarian
SNB-19 CNS = system: SNB-19 CNS
KM12 colon = system: KM12 colon
SN12C renal = system: SN12C renal
CCRF-CEM leukemia = system: CCRF-CEM leukemia
MALME-3M melanoma = system: MALME-3M melanoma
NCI-H226 lung = system: NCI-H226 lung
UO-31 renal = system: UO-31 renal
NCI-H522 lung = system: NCI-H522 lung
SF-295 CNS = system: SF-295 CNS
SK-MEL-28 melanoma = system: SK-MEL-28 melanoma
M14 melanoma = system: M14 melanoma
NCI/ADR-RES ovarian = system: NCI/ADR-RES ovarian
PC-3 prostate = system: PC-3 prostate
MOLT-4 leukemia = system: MOLT-4 leukemia
A498 renal = system: A498 renal
HT29 colon = system: HT29 colon
RXF 393 renal = system: RXF 393 renal
DU-145 prostate = system: DU-145 prostate

Cc1cc(-c2nc3ccc(O)cc3s2)ccc1N
> 100 µM: TGI (SF-268 CNS) | TGI (SK-MEL-5 melanoma) | TGI (MDA-MB-435) | TGI (TK-10 renal) | TGI (SR leukemia) | TGI (MCF7 breast) | TGI (OVCAR-4 ovarian) | TGI (SNB-19 CNS) | TGI (KM12 colon) | TGI (SN12C renal) | TGI (CCRF-CEM leukemia) | TGI (MALME-3M melanoma) | TGI (NCI-H226 lung) | TGI (UO-31 renal) | TGI (NCI-H522 lung) | TGI (SF-295 CNS) | TGI (SK-MEL-28 melanoma) | TGI (M14 melanoma) | TGI (NCI/ADR-RES ovarian) | TGI (PC-3 prostate) | TGI (MOLT-4 leukemia) | TGI (A498 renal) | TGI (HT29 colon) | TGI (RXF 393 renal) | TGI (DU-145 prostate)
33.9 µM: TGI (BT-549 breast)
43.7 µM: TGI (NCI-H23 lung)
inactive: GI50 (EKVX NSCLC) 4.07 µM | GI50 (SK-MEL-5 melanoma) 52.1 µM | GI50 (MDA-MB-435) 88.3 µM | GI50 (NCI-H23 lung) 12.5 µM | GI50 (TK-10 renal) 76.8 µM | GI50 (BT-549 breast) 14.2 µM | GI50 (SR leukemia) 22 µM | GI50 (MCF7 breast) 56.5 µM | GI50 (OVCAR-4 ovarian) 37.2 µM | GI50 (SNB-19 CNS) 46 µM | GI50 (KM12 colon) 57.9 µM | GI50 (SN12C renal) 39 µM | GI50 (CCRF-CEM leukemia) 0.797 µM | GI50 (MALME-3M melanoma) 82.8 µM | GI50 (NCI-H226 lung) 60.2 µM | GI50 (UO-31 renal) 21.6 µM | GI50 (NCI-H522 lung) 30 µM | GI50 (SF-295 CNS) 31.5 µM | GI50 (SK-MEL-28 melanoma) 64.9 µM | GI50 (M14 melanoma) 33.1 µM | GI50 (NCI/ADR-RES ovarian) 91.1 µM | GI50 (PC-3 prostate) 50.2 µM | GI50 (MOLT-4 leukemia) 27.1 µM | GI50 (A498 renal) 41.3 µM | GI50 (HT29 colon) 37.5 µM | GI50 (RXF 393 renal) 30.5 µM | GI50 (DU-145 prostate) 34.1 µM
58.3 µM: TGI (EKVX NSCLC)
